What all share (assay): relative viability (nuclei count vs DMSO), 5 days (fraction); higher = more cells survive
Compound in the assay “17-AAG + Phenformin”: C=CCNC1=C2C[C@@H](C)C[C@H](OC)[C@H](O)[C@@H](C)/C=C(\C)[C@H](OC(N)=O)[C@@H](OC)/C=C\C=C(/C)C(=O)NC(=CC1=O)C2=O [17-AAG] + N=C(N)NC(=N)NCCc1ccccc1 [Phenformin] (partner 250 µM)
In a few lines:
(§1)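 Relative viability was taken as the ratio of nuclei in treated wells to nuclei in vehicle wells. Lung cancer cell lines in 1536-well plates received compounds by pin tool one day after seeding, either one drug alone or a fixed anchor-drug dose plus five library-drug doses (not always all listed) in √10 steps. Nuclei were counted on 4× images after 5 days of treatment, and values are medians of duplicate plates.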

Compound in the assay “17-AAG + Pictilisib”: C=CCNC1=C2C[C@@H](C)C[C@H](OC)[C@H](O)[C@@H](C)/C=C(\C)[C@H](OC(N)=O)[C@@H](OC)/C=C\C=C(/C)C(=O)NC(=CC1=O)C2=O [17-AAG] + CS(=O)(=O)N1CCN(Cc2cc3nc(-c4cccc5[nH]ncc45)nc(N4CCOCC4)c3s2)CC1 [Pictilisib] (partner 1 µM)
Put shortly:
as §1

Compound in the assay “17-AAG + Decitabine”: C=CCNC1=C2C[C@@H](C)C[C@H](OC)[C@H](O)[C@@H](C)/C=C(\C)[C@H](OC(N)=O)[C@@H](OC)/C=C\C=C(/C)C(=O)NC(=CC1=O)C2=O [17-AAG] + Nc1ncn([C@H]2C[C@H](O)[C@@H](CO)O2)c(=O)n1 [Decitabine] (partner 2 µM)
Put shortly:
as §1

Compound in the assay “17-AAG + Palbociclib”: C=CCNC1=C2C[C@@H](C)C[C@H](OC)[C@H](O)[C@@H](C)/C=C(\C)[C@H](OC(N)=O)[C@@H](OC)/C=C\C=C(/C)C(=O)NC(=CC1=O)C2=O [17-AAG] + CC(=O)c1c(C)c2cnc(Nc3ccc(N4CCNCC4)cn3)nc2n(C2CCCC2)c1=O [Palbociclib] (partner 0.5 µM)
In a few lines: as §1

Drawing on the supplement of paper PMC10307832, this text covers relative viability for eight cell lines.

In the case of NCI-H1944, the relative viability with 17-AAG + Phenformin (first compound 0.00128 µM) was 0.187; with 17-AAG + Phenformin (first compound 0.004048 µM) it was 0.194; in the assay with 17-AAG + Phenformin (first compound 0.0128 µM), 0.127; in the assay with 17-AAG + Phenformin (first compound 0.04048 µM), 0.12; in the assay with 17-AAG + Phenformin (first compound 0.128 µM), 0.114; in the assay with 17-AAG + Pictilisib (first compound 0.00128 µM) it was 0.352. The relative viability with 17-AAG + Pictilisib (first compound 0.004048 µM) was determined as 0.349; in the assay with 17-AAG + Pictilisib (first compound 0.0128 µM) it was 0.324; with 17-AAG + Pictilisib (first compound 0.04048 µM), 0.28; with 17-AAG + Pictilisib (first compound 0.128 µM), 0.24; in the assay with 17-AAG + Decitabine (first compound 0.00128 µM), 0.418; with 17-AAG + Decitabine (first compound 0.004048 µM), 0.445. Further, the relative viability with 17-AAG + Decitabine (first compound 0.0128 µM) amounted to 0.441; in the assay with 17-AAG + Decitabine (first compound 0.04048 µM), 0.357; with 17-AAG + Decitabine (first compound 0.128 µM) it was 0.163; in the assay with 17-AAG + Palbociclib (first compound 0.00128 µM) it was 0.331; in the assay with 17-AAG + Palbociclib (first compound 0.004048 µM), 0.341; with 17-AAG + Palbociclib (first compound 0.0128 µM), 0.3. In addition, the relative viability with 17-AAG + Palbociclib (first compound 0.04048 µM) is 0.281; with 17-AAG + Palbociclib (first compound 0.128 µM), 0.151.
Turning to NCI-H3122, the relative viability with 17-AAG + Phenformin (first compound 0.00128 µM) was determined as 0.396; in the assay with 17-AAG + Phenformin (first compound 0.004048 µM), 0.329; in the assay with 17-AAG + Phenformin (first compound 0.0128 µM), 0.129; with 17-AAG + Phenformin (first compound 0.04048 µM) it was 0.118; in the assay with 17-AAG + Phenformin (first compound 0.128 µM), 0.117; with 17-AAG + Pictilisib (first compound 0.00128 µM), 0.489. Also, the relative viability with 17-AAG + Pictilisib (first compound 0.004048 µM) came to 0.375; with 17-AAG + Pictilisib (first compound 0.0128 µM), 0.195; with 17-AAG + Pictilisib (first compound 0.04048 µM), 0.194; in the assay with 17-AAG + Pictilisib (first compound 0.128 µM), 0.161; in the assay with 17-AAG + Decitabine (first compound 0.00128 µM), 0.487; in the assay with 17-AAG + Decitabine (first compound 0.004048 µM), 0.413. The relative viability in the assay with 17-AAG + Decitabine (first compound 0.0128 µM) worked out at 0.426; with 17-AAG + Decitabine (first compound 0.04048 µM), 0.235; with 17-AAG + Decitabine (first compound 0.128 µM), 0.118; in the assay with 17-AAG + Palbociclib (first compound 0.00128 µM), 0.194; in the assay with 17-AAG + Palbociclib (first compound 0.004048 µM) it was 0.155; in the assay with 17-AAG + Palbociclib (first compound 0.0128 µM) it was 0.19. Further, the relative viability in the assay with 17-AAG + Palbociclib (first compound 0.04048 µM) stood at 0.0911; in the assay with 17-AAG + Palbociclib (first compound 0.128 µM), 0.117.
Regarding NCI-H1703, the relative viability turned out to be 0.235 with 17-AAG + Pictilisib (first compound 0.00128 µM); 0.181 in the assay with 17-AAG + Pictilisib (first compound 0.004048 µM); 0.188 in the assay with 17-AAG + Pictilisib (first compound 0.0128 µM); 0.168 in the assay with 17-AAG + Pictilisib (first compound 0.04048 µM); 0.141 in the assay with 17-AAG + Pictilisib (first compound 0.128 µM).
Consider NCI-H1755, for which the relative viability with 17-AAG + Phenformin (first compound 0.00128 µM) came out at 0.622; with 17-AAG + Phenformin (first compound 0.004048 µM), 0.57; in the assay with 17-AAG + Phenformin (first compound 0.0128 µM), 0.578; in the assay with 17-AAG + Phenformin (first compound 0.04048 µM), 0.254; with 17-AAG + Phenformin (first compound 0.128 µM), 0.0941; in the assay with 17-AAG + Pictilisib (first compound 0.00128 µM), 0.446. Moreover, the relative viability with 17-AAG + Pictilisib (first compound 0.004048 µM) worked out at 0.407; with 17-AAG + Pictilisib (first compound 0.0128 µM) it was 0.229; with 17-AAG + Pictilisib (first compound 0.04048 µM) it was 0.126; with 17-AAG + Pictilisib (first compound 0.128 µM), 0.09; with 17-AAG + Decitabine (first compound 0.00128 µM) it was 0.695; with 17-AAG + Decitabine (first compound 0.004048 µM), 0.772. The relative viability in the assay with 17-AAG + Decitabine (first compound 0.0128 µM) is 0.671; with 17-AAG + Decitabine (first compound 0.04048 µM) it was 0.643; in the assay with 17-AAG + Decitabine (first compound 0.128 µM), 0.391; with 17-AAG + Palbociclib (first compound 0.00128 µM), 0.435; with 17-AAG + Palbociclib (first compound 0.004048 µM), 0.443; with 17-AAG + Palbociclib (first compound 0.0128 µM), 0.471. Moreover, the relative viability in the assay with 17-AAG + Palbociclib (first compound 0.04048 µM) worked out at 0.425; in the assay with 17-AAG + Palbociclib (first compound 0.128 µM), 0.33.
With NCI-H2087, the relative viability in the assay with 17-AAG + Phenformin (first compound 0.00128 µM) is 0.394; with 17-AAG + Phenformin (first compound 0.004048 µM), 0.232; with 17-AAG + Phenformin (first compound 0.0128 µM) it was 0.138; in the assay with 17-AAG + Phenformin (first compound 0.04048 µM), 0.125; with 17-AAG + Phenformin (first compound 0.128 µM) it was 0.105; with 17-AAG + Pictilisib (first compound 0.00128 µM), 0.867. For the same cell line, the relative viability with 17-AAG + Pictilisib (first compound 0.004048 µM) was determined as 0.651; in the assay with 17-AAG + Pictilisib (first compound 0.0128 µM) it was 0.356; with 17-AAG + Pictilisib (first compound 0.04048 µM), 0.229; with 17-AAG + Pictilisib (first compound 0.128 µM), 0.175; with 17-AAG + Decitabine (first compound 0.00128 µM) it was 0.248; with 17-AAG + Decitabine (first compound 0.004048 µM), 0.193. The relative viability with 17-AAG + Decitabine (first compound 0.0128 µM) stood at 0.104; with 17-AAG + Decitabine (first compound 0.04048 µM), 0.113; with 17-AAG + Decitabine (first compound 0.128 µM) it was 0.114; with 17-AAG + Palbociclib (first compound 0.00128 µM), 0.315; with 17-AAG + Palbociclib (first compound 0.004048 µM), 0.179; with 17-AAG + Palbociclib (first compound 0.0128 µM), 0.185. Moreover, the relative viability was 0.0984 in the assay with 17-AAG + Palbociclib (first compound 0.04048 µM) and 0.108 in the assay with 17-AAG + Palbociclib (first compound 0.128 µM).
With NCI-H2228, the relative viability with 17-AAG + Phenformin (first compound 0.00128 µM) was 0.337; in the assay with 17-AAG + Phenformin (first compound 0.004048 µM), 0.185; with 17-AAG + Phenformin (first compound 0.0128 µM), 0.0958; with 17-AAG + Phenformin (first compound 0.04048 µM) it was 0.099; with 17-AAG + Phenformin (first compound 0.128 µM), 0.0688; with 17-AAG + Pictilisib (first compound 0.00128 µM) it was 0.346. Besides, the relative viability in the assay with 17-AAG + Pictilisib (first compound 0.004048 µM) came out at 0.153; in the assay with 17-AAG + Pictilisib (first compound 0.0128 µM), 0.128; with 17-AAG + Pictilisib (first compound 0.04048 µM) it was 0.148; with 17-AAG + Pictilisib (first compound 0.128 µM), 0.102; in the assay with 17-AAG + Palbociclib (first compound 0.00128 µM) it was 0.672; with 17-AAG + Palbociclib (first compound 0.004048 µM), 0.483. Further, the relative viability with 17-AAG + Palbociclib (first compound 0.0128 µM) was 0.131; in the assay with 17-AAG + Palbociclib (first compound 0.04048 µM), 0.101; with 17-AAG + Palbociclib (first compound 0.128 µM), 0.107.
Regarding NCI-H838, the relative viability with 17-AAG + Phenformin (first compound 0.00128 µM) is 0.543; in the assay with 17-AAG + Phenformin (first compound 0.004048 µM), 0.327; with 17-AAG + Phenformin (first compound 0.0128 µM), 0.118; with 17-AAG + Phenformin (first compound 0.04048 µM), 0.132; in the assay with 17-AAG + Phenformin (first compound 0.128 µM), 0.0945; with 17-AAG + Pictilisib (first compound 0.00128 µM), 0.498. In addition, the relative viability with 17-AAG + Pictilisib (first compound 0.004048 µM) worked out at 0.306; in the assay with 17-AAG + Pictilisib (first compound 0.0128 µM), 0.174; in the assay with 17-AAG + Pictilisib (first compound 0.04048 µM), 0.157; with 17-AAG + Pictilisib (first compound 0.128 µM), 0.132; with 17-AAG + Decitabine (first compound 0.00128 µM), 0.405; with 17-AAG + Decitabine (first compound 0.004048 µM), 0.45. In addition, the relative viability was 0.217 with 17-AAG + Decitabine (first compound 0.0128 µM); 0.195 with 17-AAG + Decitabine (first compound 0.04048 µM); 0.2 with 17-AAG + Decitabine (first compound 0.128 µM); 0.234 with 17-AAG + Palbociclib (first compound 0.00128 µM); 0.209 in the assay with 17-AAG + Palbociclib (first compound 0.004048 µM); 0.133 with 17-AAG + Palbociclib (first compound 0.0128 µM). Besides, the relative viability with 17-AAG + Palbociclib (first compound 0.04048 µM) was 0.14; with 17-AAG + Palbociclib (first compound 0.128 µM), 0.129.
With NCI-H661, the relative viability was determined as 0.304 in the assay with 17-AAG + Phenformin (first compound 0.00128 µM); 0.293 in the assay with 17-AAG + Phenformin (first compound 0.004048 µM); 0.293 with 17-AAG + Phenformin (first compound 0.0128 µM); 0.256 with 17-AAG + Phenformin (first compound 0.04048 µM); 0.188 with 17-AAG + Phenformin (first compound 0.128 µM); 0.39 with 17-AAG + Pictilisib (first compound 0.00128 µM). The relative viability amounted to 0.534 in the assay with 17-AAG + Pictilisib (first compound 0.004048 µM); 0.363 in the assay with 17-AAG + Pictilisib (first compound 0.0128 µM); 0.259 in the assay with 17-AAG + Pictilisib (first compound 0.04048 µM); 0.275 with 17-AAG + Pictilisib (first compound 0.128 µM); 0.496 with 17-AAG + Decitabine (first compound 0.00128 µM); 0.552 with 17-AAG + Decitabine (first compound 0.004048 µM). Also, the relative viability is 0.473 with 17-AAG + Decitabine (first compound 0.0128 µM); 0.341 with 17-AAG + Decitabine (first compound 0.04048 µM); 0.257 with 17-AAG + Decitabine (first compound 0.128 µM); 0.411 in the assay with 17-AAG + Palbociclib (first compound 0.00128 µM); 0.365 with 17-AAG + Palbociclib (first compound 0.004048 µM); 0.314 with 17-AAG + Palbociclib (first compound 0.0128 µM). Further, the relative viability came out at 0.353 with 17-AAG + Palbociclib (first compound 0.04048 µM) and 0.254 with 17-AAG + Palbociclib (first compound 0.128 µM).
